Several values for one entry are separate records, joined by “and”; a condition that tells them apart may be missing. Equal values may be shown once.
Key:
[1] = Boiling temperature at pressure P; details: 100 kPa; Glass; DTA
[2] = Solid-liquid equilibrium temperature; details: 100 kPa, DTA
[3] = Molar enthalpy of transition or fusion; details: DSC
[4] = Closed cell (Static) method

O=C(c1ccccc1)c1ccccc1 [benzophenone]
Details	Boiling temperature at pressure P [°C]
[1]	-61

Details	Molar enthalpy of transition or fusion, [3] [kcal/mol]	Solid-liquid equilibrium temperature, [2] [K]
Crystal	4.45	321.3
Metastable crystal	3.47	298.3

[4]
Details	vapor or sublimation pressure
293.08 K, Crystal	4.2e-05 kPa
293.09 K, Crystal	4.6e-05 kPa
293.1 K, Crystal	4.1e-05 kPa
293.11 K, Metastable liquid	8.1e-05 kPa and 8.4e-05 kPa and 8.5e-05 kPa
296.29 K, Crystal	6.8e-05 kPa and 6.9e-05 kPa
296.3 K, Crystal	6.7e-05 kPa
298.44 K, Crystal	9.2e-05 kPa and 9.3e-05 kPa
298.45 K, Crystal	9e-05 kPa
298.48 K, Metastable liquid	0.000153 kPa and 0.000157 kPa and 0.000158 kPa
300.55 K, Crystal	0.000124 kPa
300.56 K, Crystal	0.000118 kPa and 0.000119 kPa
302.13 K, Metastable liquid	0.000217 kPa and 0.000221 kPa
302.14 K, Metastable liquid	0.000217 kPa
303.2 K, Crystal	0.000168 kPa
303.22 K, Crystal	0.000166 kPa
303.25 K, Crystal	0.000165 kPa
306.93 K, Crystal	0.000263 kPa and 0.000265 kPa and 0.000267 kPa
307.46 K, Metastable liquid	0.000382 kPa
307.48 K, Metastable liquid	0.000376 kPa and 0.00038 kPa
309.05 K, Crystal	0.000338 kPa and 0.00034 kPa and 0.000345 kPa
311.1 K, Crystal	0.000431 kPa and 0.000434 kPa and 0.000435 kPa
312.77 K, Metastable liquid	0.000631 kPa
312.78 K, Metastable liquid	0.000635 kPa and 0.000637 kPa
314.3 K, Crystal	0.000629 kPa and 0.000632 kPa and 0.000635 kPa
317.33 K, Crystal	0.000891 kPa
317.34 K, Crystal	0.000892 kPa and 0.000899 kPa
318.05 K, Metastable liquid	0.001035 kPa and 0.001036 kPa and 0.001039 kPa
319.4 K, Crystal	0.00113 kPa
319.41 K, Crystal	0.001128 kPa and 0.001131 kPa
320.42 K, Crystal	0.001256 kPa and 0.001265 kPa and 0.001267 kPa
320.95 K, Crystal	0.001353 kPa and 0.001356 kPa and 0.001362 kPa
323.33 K, Metastable liquid	0.001658 kPa and 0.00166 kPa and 0.001661 kPa
333.79 K, Liquid	0.003974 kPa and 0.003975 kPa and 0.003979 kPa
338.9 K, Liquid	0.005953 kPa and 0.005954 kPa and 0.005968 kPa
344.09 K, Liquid	0.008882 kPa and 0.00889 kPa and 0.008894 kPa
349.19 K, Liquid	0.0129 kPa and 0.01291 kPa and 0.01293 kPa
354.35 K, Liquid	0.01864 kPa and 0.01865 kPa and 0.01866 kPa
359.4 K, Liquid	0.02628 kPa and 0.02629 kPa and 0.02631 kPa
364.47 K, Liquid	0.03673 kPa
364.48 K, Liquid	0.03672 kPa

CCCCCCCCCC [decane]
[4], Liquid
Details	vapor or sublimation pressure
276.76 K	0.03526 kPa
276.77 K	0.03527 kPa and 0.03532 kPa
279.78 K	0.0452 kPa
279.79 K	0.04525 kPa
282.92 K	0.0583 kPa and 0.05835 kPa
282.93 K	0.05835 kPa
285.13 K	0.06951 kPa
285.16 K	0.06967 kPa
285.18 K	0.06981 kPa
288.76 K	0.0915 kPa and 0.09155 kPa
288.77 K	0.09159 kPa
292.21 K	0.1188 kPa
292.22 K	0.1188 kPa
294.67 K	0.1405 kPa
301.29 K	0.2229 kPa
301.38 K	0.2242 kPa and 0.2243 kPa
303.84 K	0.2659 kPa
303.85 K	0.266 kPa and 0.2661 kPa
307.33 K	0.3327 kPa and 0.3328 kPa
315.2 K	0.5466 kPa
315.21 K	0.5467 kPa
319.09 K	0.6901 kPa
319.11 K	0.6907 kPa and 0.6909 kPa
320.85 K	0.7646 kPa and 0.7649 kPa and 0.765 kPa
324.98 K	0.9683 kPa
324.99 K	0.9687 kPa
325 K	0.9687 kPa
326.41 K	1.049 kPa
330.79 K	1.33 kPa and 1.331 kPa
330.8 K	1.332 kPa
331.92 K	1.414 kPa
331.93 K	1.415 kPa

[CH]1C=CC=C1.[CH]1C=CC=C1.[Fe] [ferrocene]
[4], Crystal
Details	vapor or sublimation pressure
276.97 K	9.4e-05 kPa and 9.7e-05 kPa
276.98 K	0.000101 kPa
282.75 K	0.000181 kPa and 0.000189 kPa
282.76 K	0.000194 kPa
286.28 K	0.000288 kPa
286.29 K	0.000285 kPa
286.31 K	0.000283 kPa
288.24 K	0.000335 kPa and 0.000344 kPa
292.28 K	0.000536 kPa
292.29 K	0.000527 kPa and 0.000529 kPa
293.76 K	0.000622 kPa and 0.000626 kPa and 0.000627 kPa
294.28 K	0.000652 kPa
294.29 K	0.000646 kPa
294.34 K	0.00065 kPa
296.77 K	0.000841 kPa
296.78 K	0.000848 kPa and 0.000858 kPa
299.19 K	0.001072 kPa and 0.001073 kPa and 0.001078 kPa
302.11 K	0.001417 kPa
302.13 K	0.001428 kPa and 0.001429 kPa
303.24 K	0.00162 kPa
303.25 K	0.001618 kPa
304.61 K	0.001809 kPa and 0.001811 kPa and 0.001815 kPa
307.47 K	0.002395 kPa and 0.002397 kPa and 0.002384 kPa
310.03 K	0.003047 kPa and 0.003053 kPa
310.04 K	0.003068 kPa
312.78 K	0.003906 kPa and 0.00391 kPa and 0.003916 kPa
314.08 K	0.00442 kPa and 0.004424 kPa
314.09 K	0.004449 kPa
315.43 K	0.004969 kPa and 0.004971 kPa
318.06 K	0.006287 kPa and 0.006293 kPa and 0.006304 kPa
320.77 K	0.007956 kPa
323.34 K	0.009923 kPa
323.35 K	0.009927 kPa and 0.009932 kPa
324.89 K	0.01134 kPa and 0.01135 kPa
326.09 K	0.01251 kPa and 0.01252 kPa
328.59 K	0.01539 kPa
328.6 K	0.0154 kPa and 0.01541 kPa
331.35 K	0.01928 kPa
331.36 K	0.01929 kPa and 0.0193 kPa
333.86 K	0.02352 kPa
335.51 K	0.02691 kPa and 0.02692 kPa
336.59 K	0.02929 kPa
336.6 K	0.02929 kPa
339.07 K	0.03535 kPa
339.08 K	0.03533 kPa and 0.03537 kPa
341.81 K	0.04367 kPa and 0.04368 kPa and 0.04369 kPa
344.2 K	0.052 kPa
344.21 K	0.05207 kPa and 0.0521 kPa
346.02 K	0.0598 kPa and 0.05982 kPa and 0.05985 kPa
349.36 K	0.07591 kPa
349.37 K	0.07593 kPa and 0.07595 kPa
351.22 K	0.08709 kPa and 0.08711 kPa and 0.08712 kPa
354.37 K	0.1082 kPa
356.27 K	0.1242 kPa
359.5 K	0.1538 kPa
359.51 K	0.1539 kPa
362.73 K	0.1914 kPa and 0.1916 kPa
366.77 K	0.2492 kPa and 0.2493 kPa and 0.2494 kPa

c1ccc2ccccc2c1 [naphthalene]
[4]
Details	vapor or sublimation pressure
276.72 K, Crystal	0.001118 kPa
276.73 K, Crystal	0.001122 kPa
276.74 K, Crystal	0.001118 kPa
280.12 K, Crystal	0.001625 kPa
280.15 K, Crystal	0.001634 kPa
280.17 K, Crystal	0.001644 kPa
283.27 K, Crystal	0.002321 kPa and 0.002329 kPa and 0.002333 kPa
286.33 K, Crystal	0.003264 kPa and 0.003275 kPa
286.34 K, Crystal	0.003276 kPa
289.39 K, Crystal	0.004482 kPa and 0.004484 kPa and 0.004493 kPa
292 K, Crystal	0.005885 kPa and 0.005899 kPa and 0.005902 kPa
292.04 K, Crystal	0.005878 kPa
292.05 K, Crystal	0.005881 kPa and 0.005889 kPa
293.36 K, Crystal	0.006861 kPa
293.38 K, Crystal	0.006881 kPa
293.4 K, Crystal	0.006871 kPa
294.91 K, Crystal	0.007907 kPa
294.94 K, Crystal	0.007905 kPa
294.96 K, Crystal	0.007922 kPa
296.91 K, Crystal	0.009768 kPa and 0.009773 kPa
296.92 K, Crystal	0.009786 kPa
297.67 K, Crystal	0.01039 kPa and 0.0104 kPa
297.68 K, Crystal	0.01041 kPa
300.93 K, Crystal	0.01426 kPa
300.95 K, Crystal	0.01427 kPa and 0.01428 kPa
302.6 K, Crystal	0.01691 kPa and 0.01696 kPa
303.67 K, Crystal	0.01833 kPa and 0.01835 kPa
306.52 K, Crystal	0.02413 kPa
306.6 K, Crystal	0.02433 kPa
306.65 K, Crystal	0.02446 kPa
308.22 K, Crystal	0.02835 kPa and 0.02834 kPa
312.83 K, Crystal	0.04277 kPa
312.84 K, Crystal	0.04281 kPa
312.85 K, Crystal	0.04282 kPa
313.85 K, Crystal	0.04691 kPa
315.09 K, Crystal	0.05173 kPa and 0.05174 kPa
317.19 K, Crystal	0.06259 kPa and 0.06261 kPa and 0.06262 kPa
319.43 K, Crystal	0.07588 kPa and 0.07592 kPa
324.1 K, Crystal	0.1124 kPa
324.99 K, Crystal	0.1206 kPa
325 K, Crystal	0.1206 kPa
325.01 K, Crystal	0.1206 kPa
326.36 K, Crystal	0.1338 kPa
326.37 K, Crystal	0.1338 kPa
328.22 K, Crystal	0.1567 kPa
330.59 K, Crystal	0.1886 kPa
330.6 K, Crystal	0.1887 kPa
335.27 K, Crystal	0.2723 kPa
335.28 K, Crystal	0.2726 kPa
335.31 K, Crystal	0.2732 kPa
336.07 K, Crystal	0.288 kPa and 0.2881 kPa
337.45 K, Crystal	0.3184 kPa
337.46 K, Crystal	0.3185 kPa
339.09 K, Crystal	0.3626 kPa and 0.3628 kPa and 0.3624 kPa
341.45 K, Crystal	0.4305 kPa
341.46 K, Crystal	0.4306 kPa
346.83 K, Crystal	0.6347 kPa
346.84 K, Crystal	0.6347 kPa
348.58 K, Crystal	0.7143 kPa and 0.7145 kPa and 0.7148 kPa
352.18 K, Crystal	0.9195 kPa and 0.9196 kPa
355.35 K, Liquid	1.098 kPa
358.34 K, Liquid	1.266 kPa
358.36 K, Liquid	1.267 kPa
358.38 K, Liquid	1.269 kPa
